Experimental data as given in patent US20080076760A1, “2,3,4,5-TETRAHYDRO-1H-1,5-BENZODIAZEPINE DERIVATIVE AND MEDICINAL COMPOSITION” (priority 2004, published 2008).

Assays:
[1] = biological target: human vasopressin V1a receptor (Homo sapiens, UniProt P37288); assay: Receptor binding study, [3H]AVP displacement on CHO cell membranes, human V1a; settings: [3H]AVP displacement, CHO cell membrane, 25° C., one hour; read-out: Human V1a Ki
Experimental: (§1) (ii) Receptor Binding Study
(§2) Assay was performed using 50 mM of Tris-HCl (pH=7.4) (total amount: 250 μL) (buffer composition: containing […] of MgCl2 and 0.1% BSA), and incubation was performed at room temperature (25° C.) for one hour. After incubation, suck filtration was immediately performed and reaction was completed when the membrane sample was collected on a glass fiber filter fitted with the microplate. After the filter was washed with an ice-cold Tris-HCl buffer (50 mM Tris-HCl, 10 mM MgCl2, pH 7.4), radioactivity measurement was performed. Nonspecific binding was determined using nonradioactive-labeled AVP (1 μM).

[2] = biological target: human vasopressin V2 receptor (Homo sapiens, UniProt P30518); assay: Receptor binding study, [3H]AVP displacement on CHO cell membranes, human V2; settings: [3H]AVP displacement, CHO cell membrane, 25° C., one hour; read-out: Human V2 Ki
Experimental: Preparation of Chinese hamster ovary (Cho) cell which expresses human vasopressin receptor subtype and production of membrane sample of the cell was conducted according to the method of Tahara et al. (Br. J. Pharmacol., 125, 1463-1470, 1998).
as §1
as §2, with “In saturation binding experiment, the membrane sample and [^3H]AVP of several concentrations (0.125 nM to 4.0 nM) were mixed and incubated in microplate wells. In displacement experiment, [^3H]AVP of constant concentrations (0.5 nM to 1.0 nM) and the membrane sample were mixed with Compound A of several concentrations, and incubation was performed. Assay” for “Assay”

Chain of human vasopressin V2 receptor (P30518 whole entry): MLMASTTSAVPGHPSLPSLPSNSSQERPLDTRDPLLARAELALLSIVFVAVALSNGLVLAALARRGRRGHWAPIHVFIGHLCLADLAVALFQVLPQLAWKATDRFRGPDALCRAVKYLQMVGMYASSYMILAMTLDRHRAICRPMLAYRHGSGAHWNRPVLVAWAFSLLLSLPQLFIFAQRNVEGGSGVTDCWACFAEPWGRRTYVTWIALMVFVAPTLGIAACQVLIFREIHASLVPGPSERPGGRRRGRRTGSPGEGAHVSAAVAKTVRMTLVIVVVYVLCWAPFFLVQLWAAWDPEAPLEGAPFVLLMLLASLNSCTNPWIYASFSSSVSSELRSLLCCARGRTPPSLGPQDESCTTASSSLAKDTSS
Chain of human vasopressin V1a receptor (P37288 whole entry): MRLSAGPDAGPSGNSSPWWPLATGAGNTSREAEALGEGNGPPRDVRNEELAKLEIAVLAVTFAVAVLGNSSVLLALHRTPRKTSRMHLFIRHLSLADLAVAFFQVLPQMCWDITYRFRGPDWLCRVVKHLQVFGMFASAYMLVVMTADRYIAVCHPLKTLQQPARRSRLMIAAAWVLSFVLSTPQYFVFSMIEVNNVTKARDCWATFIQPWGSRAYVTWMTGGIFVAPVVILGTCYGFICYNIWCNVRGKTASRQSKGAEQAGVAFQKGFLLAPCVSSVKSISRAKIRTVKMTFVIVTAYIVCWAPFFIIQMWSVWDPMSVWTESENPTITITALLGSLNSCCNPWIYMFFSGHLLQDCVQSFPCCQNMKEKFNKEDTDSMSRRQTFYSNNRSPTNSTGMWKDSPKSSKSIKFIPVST

Structure (SMILES) | Ki [1] [nM] | Ki [2] [nM]
CNCCCOc1cc(C(=O)N2CC[C@H](C)Nc3ccccc32)ccc1-c1ccc2[nH]ccc2c1 [Example 51, N-[3-[2-(1H-indol-5-yl)-5-[[(4S)-4-methyl-2,3,4,5-tetrahydro-1H-1,5-benzodiazepin-1-yl]carbonyl]phenoxy]propyl]-N-methylamine] | 0.079 | 12
C[C@H]1CCN(C(=O)c2ccc(-c3ccc4[nH]ccc4c3)c(NC(=O)N3CCOCC3)c2)c2ccccc2N1 [Example 89, N-[2-(1H-indol-5-yl)-5-[[(4S)-4-methyl-2,3,4,5-tetrahydro-1H-1,5-benzodiazepin-1-yl]carbonyl]phenyl]-4-morpholine carboxamide] | 0.29 | 19
C[C@H]1CCN(C(=O)c2ccc(-c3ccc4[nH]ccc4c3)c(OCCCN3CCN(C)CC3)c2)c2ccccc2N1 [Example 70, (4S)-1-[4-(1H-indol-5-yl)-3-[3-(4-methyl-1-piperazinyl)propoxy]benzoyl]-4-methyl-2,3,4,5-tetrahydro-1H-1,5-benzodiazepine] | 0.19 | 6.9
CC1CCN(C(=O)c2ccc(-c3ccc4[nH]ccc4c3)c(OCCN3CCOCC3)c2)c2ccccc2N1 (centres unmarked) [Example 46, 2-(1H-indol-5-yl)-5-[(4-methyl-2,3,4,5-tetrahydro-1H-1,5-benzodiazepin-1-yl)carbonyl]phenyl 2-(4-morpholinyl)ethyl ether] | 0.24 | 1.1
CC(=O)N1CCN(CCCOc2cc(C(=O)N3CC[C@H](C)Nc4ccccc43)ccc2-c2ccc3[nH]ccc3c2)CC1 [Example 73, (4S)-1-[3-[3-(4-acetyl-1-piperazinyl)propoxy]-4-(1H-indol-5-yl)]-4-methyl-2,3,4,5-tetrahydro-1H-1,5-benzodiazepine] | 0.19 | 4.6
C[C@H]1CCN(C(=O)c2ccc(-c3ccc(N)cc3)c(OCCCN)c2)c2ccccc2N1 [Example 54, 2′-(3-aminopropoxy)-4′-[[(4S)-4-methyl-2,3,4,5-tetrahydro-1H-1,5-benzodiazepin-1-yl]carbonyl][1,1′-biphenyl]-4-amine] | 0.41 | 731
C[C@H]1CCN(C(=O)c2ccc(-c3ccc4[nH]ccc4c3)c(OCCCN3CCC[C@H]3C(N)=O)c2)c2ccccc2N1 [Example 88, (2S)-1-[3[2-(1H-indol-5-yl)-5-[[(4S)-4-methyl-2,3,4,5-tetrahydro-1H-1,5-benzodiazepin-1-yl]carbonyl]phenoxy]propyl]-2-pyrrolidine carboxamide] | 0.3 | 3
C[C@H]1CCN(C(=O)c2ccc(-c3ccc4[nH]ccc4c3)c(OCCCCCN3CCOCC3)c2)c2ccccc2N1 [Example 69, (4S)-1-[4-(1H-indol-5-yl)-3-[[5-(4-morpholinyl)pentyl]oxy]benzoyl]-4-methyl-2,3,4,5-tetrahydro-1H-1,5-benzodiazepine] | 0.24 | 17
C[C@H]1CCN(C(=O)c2ccc(-c3ccc4[nH]ccc4c3)c(OCCCN3CCOC3=O)c2)c2ccccc2N1 [Example 92, 3-[3-[2-(1H-indol-5-yl)-5-[[(4S)-4-methyl-2,3,4,5-tetrahydro-1H-1,5-benzodiazepin-1-yl]carbonyl]phenoxy]propyl]-1,3-oxazolidin-2-one] | 0.21 | 5.6
CC1CCN(C(=O)c2ccc(-c3ccc4[nH]ccc4c3)c(OCCCCN)c2)c2ccccc2N1 (centres unmarked) [Example 36, 4-[2-(1H-indol-5-yl)-5-[(4-methyl-2,3,4,5-tetrahydro-1H-1,5-benzodiazepin-1-yl)carbonyl]phenoxy]-1-butaneamine] | 0.23 | 11
C[C@@H]1CCN(C(=O)c2ccc(-c3ccc4[nH]ccc4c3)c(OCCCN)c2)c2ccccc2N1 [Example 55, 3-[2-(1H-indol-5-yl)-5-[[(4R)-4-methyl-2,3,4,5-tetrahydro-1H-1,5-benzodiazepin-1-yl]carbonyl]phenoxy]propylamine] | 0.31 | 25
CC1CCN(C(=O)c2ccc(-c3ccc4[nH]ccc4c3)c(OCCCN)c2)c2ccccc2N1 (centres unmarked) [Example 30, 3-[2-(1H-indol-5-yl)-5-[(4-methyl-2,3,4,5-tetrahydro-1H-1,5-benzodiazepin-1-yl)carbonyl]phenoxy]-1-propaneamine] | 0.091 | 17

Now from value to molecule:

Ki [1] [nM] | Ki [2] [nM] | Structure (SMILES)
0.38 | 9.9 | C[C@H]1CCN(C(=O)c2ccc(-c3ccc4[nH]ccc4c3)c(OCCCN3CCC(N(C)C)CC3)c2)c2ccccc2N1 [Example 123]
0.13 | 33 | C[C@H]1CCN(C(=O)c2ccc(-c3ccc4[nH]ccc4c3)c(OCCCN3CCC(N4CCOCC4)CC3)c2)c2ccccc2N1 [Example 107, (4S)-1-[4-(1H-indol-5-yl)-3-[3-[4-(4-morpholinyl)-1-piperidinyl]propoxy]benzoyl]-4-methyl-2,3,4,5-tetrahydro-1H-1,5-benzodiazepine]
0.13 | 6.5 | C[C@H]1CCN(C(=O)c2ccc(-c3ccc4[nH]ccc4c3)c(OCCN3CCN(C)CC3)c2)c2ccccc2N1 [Example 110, (4S)-1-[4-(1H-indol-5-yl)-3-[2-(4-methyl-1-piperazinyl)ethoxy]benzoyl]-4-methyl-2,3,4,5-tetrahydro-1H-1,5-benzodiazepine]
0.23 | 16 | C[C@H]1CCN(C(=O)c2ccc(-c3ccc4[nH]ccc4c3)c(C(=O)OCCCN3CCN(C)CC3)c2)c2ccccc2N1 [Example 136, 3-(4-methyl-1-piperazinyl)propyl 2-(1H-indol-5-yl)-5-[[(4S)-4-methyl-2,3,4,5-tetrahydro-1H-1,5-benzodiazepin-1-yl]carbonyl]benzoate]
0.19 | 53 | CCCN(C)CCCCOc1cc(C(=O)N2CC[C@H](C)Nc3ccccc32)ccc1-c1ccc(NCC)cc1 [Example 156]
0.25 | 10 | CCCN(C)C1CCN(CCOc2cc(C(=O)N3CC[C@H](C)Nc4ccccc43)ccc2-c2ccc3[nH]ccc3c2)CC1 [Example 151, N-[1-[2-[2-(1H-indol-5-yl)-5-[[(4S)-4-methyl-2,3,4,5-tetrahydro-1H-1,5-benzodiazepin-1-yl]carbonyl]phenoxy]ethyl]-4-piperidinyl]-N-methyl-N-propylamine]
0.21 | 77 | CCCN(C)CCCOc1cc(C(=O)N2CC[C@@H](C)Nc3ccccc32)ccc1-c1ccc2[nH]ccc2c1 [Example 127, N-[3-[2-(1H-indol-5-yl)-5-[[(4R)-4-methyl-2,3,4,5-tetrahydro-1H-1,5-benzodiazepin-1-yl)carbonyl]phenoxy]propyl]-N-methyl-N-propylamine]
0.36 | 309 | CCCN(C)CCCOc1cc(C(=O)N2CC[C@@H](C)Nc3ccccc32)ccc1-c1ccc(NC)cc1 [Example 130, N-methyl-2′-[3-[methyl(propyl)amino]propoxy]-4′-[[(4R)-4-methyl-2,3,4,5-tetrahydro-1H-1,5-benzodiazepin-1-yl]carbonyl][1,1′-biphenyl]-4-amine]
0.45 | 10 | C[C@H]1CCN(C(=O)c2ccc(-c3ccc4[nH]ccc4c3)c(OCCCN3CCC(N)CC3)c2)c2ccccc2N1 [Example 141, 1-[3-[2-(1H-indol-5-yl)-5-[[(4S)-4-methyl-2,3,4,5-tetrahydro-1H-1,5-benzodiazepin-1-yl]carbonyl]phenoxy]propyl]-4-piperidinylamine]
0.22 | 18 | CCCCN(C)CCCOc1cc(C(=O)N2CC[C@H](C)Nc3ccccc32)ccc1-c1ccc2[nH]ccc2c1 [Example 114, N-[3-[2-(1H-indol-5-yl)-5-[[(4S)-4-methyl-2,3,4,5-tetrahydro-1H-1,5-benzodiazepin-1-yl]carbonyl]phenoxy]propyl]-N-methyl-1-butaneamine]
0.15 | 9.5 | CCN(C)CCCOc1cc(C(=O)N2CC[C@H](C)Nc3ccccc32)ccc1-c1ccc2[nH]ccc2c1 [Example 118, N-ethyl-3-[2-(1H-indol-5-yl)-5-[[(4S)-4-methyl-2,3,4,5-tetrahydro-1H-1,5-benzodiazepin-1-yl]carbonyl]phenoxy]-N-methyl-1-propaneamine]
0.4 | 53 | CCCN(C)CCCOc1cc(C(=O)N2CC[C@H](C)Nc3ccccc32)ccc1-c1ccc(NCC)c(F)c1 [Example 154, N-ethyl-3-fluoro-2′-[3-[methyl(propyl)amino]propoxy]-4′-[[(4S)-4-methyl-2,3-4,5-tetrahydro-1H-1,5-benzodiazepin-1-yl]carbonyl][1,1′-biphenyl]-4-amine]
0.16 | 11 | CCN(CC)CCCOc1cc(C(=O)N2CC[C@H](C)Nc3ccccc32)ccc1-c1ccc2[nH]ccc2c1 [Example 116, N,N-diethyl-3-[2-(1H-indol-5-yl)-5-[[(4S)-4-methyl-2,3,4,5-tetrahydro-1H-1,5-benzodiazepin-1-yl]carbonyl]phenoxy]-1-propaneamine]
